Calls of active or inactive are those of the source. The rule behind the calls is not given here.
Assays:
[1] = target: T1, Nuclear receptor subfamily 1 group I member 2 (Homo sapiens, UniProt O75469); assay: Agonist activity at human PXR transfected in HepG2 at 10 uM by luciferase reporter assay; assay type: cell-based; conditions: hepg2, 10 µM
T1 sequence (O75469 whole entry): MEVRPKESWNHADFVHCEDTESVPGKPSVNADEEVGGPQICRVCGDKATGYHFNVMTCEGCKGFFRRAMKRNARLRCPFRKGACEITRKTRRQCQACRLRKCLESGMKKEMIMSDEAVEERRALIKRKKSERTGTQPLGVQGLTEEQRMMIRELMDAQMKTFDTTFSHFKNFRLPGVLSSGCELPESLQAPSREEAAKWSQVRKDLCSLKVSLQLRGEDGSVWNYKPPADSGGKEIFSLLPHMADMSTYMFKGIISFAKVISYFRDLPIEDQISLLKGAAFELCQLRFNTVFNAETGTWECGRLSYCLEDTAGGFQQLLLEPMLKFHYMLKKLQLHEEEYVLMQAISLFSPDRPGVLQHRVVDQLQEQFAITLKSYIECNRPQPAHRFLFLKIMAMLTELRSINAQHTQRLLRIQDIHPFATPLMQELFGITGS

[2] = target: T2, Bile acid receptor (Homo sapiens) (UniProt Q96RI1); assay: Antagonist activity at human FXR in HepG2 cells assessed as reversal of CDCA-induced increase in […] mRNA expression level at 0.1 to 1 uM dosed after 24 hrs starvation followed by CDCA addition and measured after 18 hrs by RT-PCR analysis
T2 sequence (whole entry): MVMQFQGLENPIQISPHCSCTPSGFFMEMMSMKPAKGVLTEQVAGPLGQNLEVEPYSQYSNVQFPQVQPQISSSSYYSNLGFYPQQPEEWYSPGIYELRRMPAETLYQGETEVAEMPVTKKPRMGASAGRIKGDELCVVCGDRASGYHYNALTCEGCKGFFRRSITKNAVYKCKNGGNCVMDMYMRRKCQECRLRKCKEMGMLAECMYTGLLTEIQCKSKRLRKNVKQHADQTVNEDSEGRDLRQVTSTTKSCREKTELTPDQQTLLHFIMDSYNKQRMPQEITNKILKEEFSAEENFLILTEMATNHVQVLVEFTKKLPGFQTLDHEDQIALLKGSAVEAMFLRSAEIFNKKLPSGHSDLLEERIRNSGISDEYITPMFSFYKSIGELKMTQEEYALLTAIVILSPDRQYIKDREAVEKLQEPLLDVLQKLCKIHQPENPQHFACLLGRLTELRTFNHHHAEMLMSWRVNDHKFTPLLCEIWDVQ

[3] = target: T1, Nuclear receptor subfamily 1 group I member 2; assay: Antagonist activity at human PXR transfected in HepG2 at 5 uM in presence of PXR agonist rifaximin by luciferase reporter assay; assay type: cell-based; conditions: hepg2, 5 µM
[4] = target: T3, Oxysterols receptor LXR-beta (Homo sapiens) (UniProt P55055); assay: Antagonist activity at human LXRbeta transfected in HepG2 at 5 uM in presence of LXRbeta agonist GW3965 by luciferase reporter assay; assay type: cell-based
T3 sequence (whole entry): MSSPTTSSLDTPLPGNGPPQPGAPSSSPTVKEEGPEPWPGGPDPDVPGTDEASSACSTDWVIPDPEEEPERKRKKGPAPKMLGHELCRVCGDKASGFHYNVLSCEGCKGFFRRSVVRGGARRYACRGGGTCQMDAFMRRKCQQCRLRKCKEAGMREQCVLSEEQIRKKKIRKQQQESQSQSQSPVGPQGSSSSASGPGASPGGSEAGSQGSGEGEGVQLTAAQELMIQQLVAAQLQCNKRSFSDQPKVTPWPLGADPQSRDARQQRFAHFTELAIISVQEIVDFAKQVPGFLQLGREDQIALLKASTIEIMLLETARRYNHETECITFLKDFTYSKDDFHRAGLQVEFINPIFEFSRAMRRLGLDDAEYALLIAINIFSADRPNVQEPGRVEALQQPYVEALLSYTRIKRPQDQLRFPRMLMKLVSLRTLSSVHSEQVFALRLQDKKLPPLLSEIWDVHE

[5] = target: T4, Peroxisome proliferator-activated receptor gamma (Homo sapiens) (UniProt P37231); assay: Antagonist activity at human PPARgamma transfected in HepG2 at 5 uM in presence of PPARgamma agonist rosiglitazone by luciferase reporter assay; assay type: cell-based
T4 sequence (whole entry): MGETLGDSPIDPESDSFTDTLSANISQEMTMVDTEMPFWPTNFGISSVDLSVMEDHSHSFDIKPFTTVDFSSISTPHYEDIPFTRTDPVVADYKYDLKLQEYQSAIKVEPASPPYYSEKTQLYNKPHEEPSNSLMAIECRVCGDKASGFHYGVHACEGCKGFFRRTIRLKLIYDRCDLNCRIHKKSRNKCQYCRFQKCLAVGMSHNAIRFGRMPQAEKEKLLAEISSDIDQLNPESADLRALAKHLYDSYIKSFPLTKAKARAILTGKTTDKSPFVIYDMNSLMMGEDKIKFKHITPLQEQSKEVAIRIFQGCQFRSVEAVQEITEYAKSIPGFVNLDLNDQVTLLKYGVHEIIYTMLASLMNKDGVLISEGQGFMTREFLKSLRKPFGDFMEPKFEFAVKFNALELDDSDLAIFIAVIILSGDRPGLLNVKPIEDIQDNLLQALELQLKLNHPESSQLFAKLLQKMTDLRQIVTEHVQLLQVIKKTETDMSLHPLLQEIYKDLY

[6] = target: T3, Oxysterols receptor LXR-beta (Homo sapiens); assay: Agonist activity at human LXRbeta transfected in HepG2 at 10 uM by luciferase reporter assay; assay type: cell-based

c1ccc2cc(-c3noc(C4CCNCC4)n3)ccc2c1
Activity [1]: Not Active
Activity [2]: Active
Activity [3]: Not Active
Activity [4]: inactive
Activity [5]: inactive
Activity [6]: inactive

Reference: ChEMBL document CHEMBL4433214, “Investigation around the Oxadiazole Core in the Discovery of a New Chemotype of Potent and Selective FXR Antagonists” (ACS Med Chem Lett, 2019)
